# Test results from patent publication US20150259295A1, “SUBSTITUTED PYRAZOLE COMPOUNDS AS LPAR ANTAGONISTS” (Hoffmann-La Roche Inc., priority 2012, published 2015).
# What was measured:
# [1] = target: human recombinant LPA1 Lysophospholipid receptor (Homo sapiens, UniProt Q92633); assay: Calcium flux assay using FLIPR, LPA1R antagonist activity; format: cell-based; details: for IC50: ChemiScreen calcium-optimized stable cell line, FLIPR calcium flux, antagonist mode
# Method: (§1) Calcium Flux Assay Using Fluorometric Imaging Plate Reader (FLIPR)
# Cell Culture Conditions: The ChemiScreen Calcium-optimized stable cell line containing the human recombinant LPA1 Lysophospholipid receptor was purchased from Chemicon International, Inc./Millipore. The cells were cultured in DMEM-high glucose supplemented with 10% fetal bovine serum, 2 mM glutamine, 100 U/mL penicillin/100 μg/mL streptomycin, 1× non-essential amino acids, 10 mM HEPES and 0.25 mg/mL Geneticin. Cells were harvested with trypsin-EDTA and counted using ViaCount reagent. The cell suspension volume was adjusted to 2.0×10^5 cells/mL with complete growth media. Aliquots of 50 μL were dispensed into 384 well black/clear tissue culture treated plates (BD) and the microplates were placed in a 37° C. incubator overnight. The following day plates were used in the assay.
# Dye Loading and Assay: Loading Buffer (FLIPR Calcium-4, Molecular Devices) was prepared by dissolving the contents of one bottle into 100 mL Hank's Balanced Salt Solution containing 20 mM HEPES and 2.5 mM probenecid. Plates were loaded onto Biotek plate washer and growth media was removed and replaced with 20 µL of Hank's Balanced Salt Solution containing 20 mM HEPES and 2.5 mM probenecid, followed by 25 μL of Loading Buffer. The plates were then incubated for 30 minutes at 37° C.
# During the incubation, test compounds were prepared by adding 90 μL of HBSS/20 mM HEPES/0.1% BSA buffer to 2 μL of serially diluted compounds. To prepare serial dilutions, 10 mM stocks of compounds were prepared in 100% DMSO. The compound dilution plate was set up as follows: well #1 received 29 μL of stock compound and 31 μL DMSO; wells 2-10 received 40 μL of DMSO; mixed and transferred 20 μL of solution from well #1 into well #2; continued with 1:3 serial dilutions out 10 steps; transferred 2 μL of diluted compound into duplicate wells of 384 well “assay plate” and then added the 90 μL of buffer.
# (§2) After incubation, both the cell and “assay” plates were brought to the FLIPR and 20 μL of the diluted compounds were transferred to the cell plates by the FLIPR. Compound addition was monitored by FLIPR to detect any agonist activity of the compounds. Plates were then incubated for 30 minutes at room temperature protected from light. After the incubation, plates were returned to the FLIPR and 20 μL of 4.5× concentrated agonist was added to the cell plates. During the assay, fluorescence readings were taken simultaneously from all 384 wells of the cell plate every 1.5 seconds. Five readings were taken to establish a stable baseline, then 20 μL of sample was rapidly (30 μL/sec) and simultaneously added to each well of the cell plate. The fluorescence was continuously monitored before, during and after sample addition for a total elapsed time of 100 seconds. Responses (increase in peak fluorescence) in each well following agonist addition was determined. The initial fluorescence reading from each well, prior to ligand stimulation, was used as zero baseline value for the data from that well. The responses were expressed as % inhibition of the buffer control.
# LPA3R = target: T1, LPA3R (Homo sapiens, UniProt Q9UBY5); assay: LPA3R antagonist activity (Table 1, calcium flux FLIPR); format: cell-based
# T1 sequence (Q9UBY5 1-353): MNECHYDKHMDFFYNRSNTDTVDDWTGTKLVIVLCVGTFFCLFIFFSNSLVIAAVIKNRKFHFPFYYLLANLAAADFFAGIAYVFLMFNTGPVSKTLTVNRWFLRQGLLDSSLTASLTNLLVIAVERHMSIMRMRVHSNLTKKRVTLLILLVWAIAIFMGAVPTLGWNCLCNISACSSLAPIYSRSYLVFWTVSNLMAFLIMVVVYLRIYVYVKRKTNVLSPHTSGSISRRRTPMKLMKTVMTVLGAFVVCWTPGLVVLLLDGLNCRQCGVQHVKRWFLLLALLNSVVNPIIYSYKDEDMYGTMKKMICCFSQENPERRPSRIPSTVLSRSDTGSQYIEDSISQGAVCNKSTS
# Method: as §1, §2
# Chain of human recombinant LPA1 Lysophospholipid receptor (Q92633 whole entry): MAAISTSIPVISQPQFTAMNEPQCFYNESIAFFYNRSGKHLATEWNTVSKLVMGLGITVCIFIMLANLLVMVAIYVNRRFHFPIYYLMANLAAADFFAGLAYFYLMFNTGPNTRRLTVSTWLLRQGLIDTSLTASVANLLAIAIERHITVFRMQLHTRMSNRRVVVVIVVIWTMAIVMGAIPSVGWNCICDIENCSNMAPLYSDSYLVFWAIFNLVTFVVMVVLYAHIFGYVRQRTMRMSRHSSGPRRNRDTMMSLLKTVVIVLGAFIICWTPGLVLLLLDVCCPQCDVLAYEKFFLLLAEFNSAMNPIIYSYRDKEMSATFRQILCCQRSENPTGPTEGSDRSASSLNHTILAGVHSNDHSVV
IC50 [1],IC50 (LPA3R),inhibition at 30 µM [1],SMILES
> 30000 nM,> 30 µM,,"C[C@@H](OC(=O)Nc1c(-c2ccc(C3(C(=O)O)CC3)cc2)cnn1C)c1ccccc1 [Example 9, 1-{4-[1-Methyl-5-((R)-1-phenyl-ethoxycarbonylamino)-1H-pyrazol-4-yl]-phenyl}-cyclopropanecarboxylic acid]"
24 nM,5.8 µM,,"C[C@@H](OC(=O)Nc1c(-c2ccc(-c3ccc(C4(C(=O)O)CC4)cc3)cc2)cnn1C)c1ccccc1F [Example 16, (R)-1-{4′-[5-((1-(2-Fluorophenyl)ethoxy)carbonylamino)-1-methyl-1H-pyrazol-4-yl]-biphenyl-4-yl}-cyclopropanecarboxylic acid]"
> 30000 nM,> 30 µM,,"C[C@@H](OC(=O)Nc1c(-c2ccc(CC(=O)O)cc2)cnn1C)c1ccccc1 [Example 10, {4-[1-Methyl-5-((R)-1-phenyl-ethoxycarbonylamino)-1H-pyrazol-4-yl]-phenyl}-acetic acid]"
880 nM,> 30 µM,85.5%,"C[C@@H](CC(=O)Nc1c(-c2ccc(-c3ccc(C4(C(=O)O)CC4)cc3)cc2)cnn1C)c1ccccc1 [Example 25, 1-{4′-[1-Methyl-5-((S)-3-phenyl-butyrylamino)-1H-pyrazol-4-yl]-biphenyl-4-yl}-cyclopropanecarboxylic acid]"
20 nM,8.35 µM,,"C[C@@H](OC(=O)Nc1c(-c2ccc(-c3ccc(C4(C(=O)O)CC4)cc3)cc2)cnn1C)c1ccccc1 [Example 5, 1-{4′-[1-Methyl-5-((R)-1-phenyl-ethoxycarbonylamino)-1H-pyrazol-4-yl]-biphenyl-4-yl}-cyclopropanecarboxylic acid]"

# More lines, now with the values behind:
SMILES,IC50 [1],IC50 (LPA3R),inhibition at 30 µM [1]
"C[C@@H](OC(=O)Nc1c(-c2ccccc2F)cnn1C)c1ccccc1Cl [Example 21, [4-(2-Fluoro-phenyl)-2-methyl-2H-pyrazol-3-yl]-carbamic acid (R)-1-(2-chloro-phenyl)-ethyl ester]",644 nM,> 30 µM,97.2%
"CC(OC(=O)Nc1c(-c2ccccc2F)cnn1C)c1ccccc1Cl (racemic) [Example 13, [4-(2-Fluoro-phenyl)-2-methyl-2H-pyrazol-3-yl]-carbamic acid 1-(2-chloro-phenyl)-ethyl ester]",1400 nM,> 30 µM,
"Cn1ncc(-c2ccc(-c3ccc(C4(C(=O)O)CC4)cc3)cc2)c1NC(=O)OC1CCC1 [Example 19, 1-{4′-[5-(cyclobutoxycarbonylamino)-1-methyl-1H-pyrazol-4-yl]-biphenyl-4-yl}-cyclopropanecarboxylic acid]",176 nM,> 30 µM,
"C[C@@H](OC(=O)Nc1c(-c2ccccc2F)cnn1C)c1cccc(C(F)(F)F)c1 [Example 23, [4-(2-Fluoro-phenyl)-2-methyl-2H-pyrazol-3-yl]-carbamic acid (R)-1-(3-trifluoromethyl-phenyl)-ethyl ester]",> 30000 nM,> 30 µM,
"Cn1ncc(-c2ccc(-c3ccc(C4(C(=O)O)CC4)cc3)cc2)c1NC(=O)OC1COC1 [Example 20, 1-{4′-[1-Methyl-5-((oxetan-3-yloxy)carbonylamino)-1H-pyrazol-4-yl]-biphenyl-4-yl}-cyclopropanecarboxylic acid]",> 30000 nM,> 30 µM,
"CC(OC(=O)Nc1c(-c2ccc(F)cc2)cnn1C)c1ccccc1Cl (stereo not drawn) [Example 11, [4-(4-Fluoro-phenyl)-2-methyl-2H-pyrazol-3-yl]-carbamic acid 1-(2-chloro-phenyl)-ethyl ester]",3930 nM,,
"CC(OC(=O)Nc1c(-c2ccccc2)cnn1C)c1ccccc1Cl (stereo not drawn) [Example 3, (2-Methyl-4-phenyl-2H-pyrazol-3-yl)-carbamic acid 1-(2-chloro-phenyl)-ethyl ester]",3590 nM,,
"CC(OC(=O)Nc1c(-c2ccccc2F)cnn1C)c1cccc(C(F)(F)F)c1 (racemic) [Example 12, [4-(2-Fluoro-phenyl)-2-methyl-2H-pyrazol-3-yl]-carbamic acid 1-(3-trifluoromethyl-phenyl)-ethyl ester]",24600 nM,> 30 µM,50.5%
